In ChEMBL document CHEMBL1201862, “PubChem BioAssay data set” (2004):
Activity calls are given as the source filed them.

Assays:
[1] = target: T1, Ubiquitin-conjugating enzyme E2 N (Homo sapiens, UniProt P61088); format: functional;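 also: Dose-response confirmation in a TR-FRET assay detecting UBC13-driven polyubiquitin chain formation, inhibition measured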
T1 sequence (P61088 whole entry): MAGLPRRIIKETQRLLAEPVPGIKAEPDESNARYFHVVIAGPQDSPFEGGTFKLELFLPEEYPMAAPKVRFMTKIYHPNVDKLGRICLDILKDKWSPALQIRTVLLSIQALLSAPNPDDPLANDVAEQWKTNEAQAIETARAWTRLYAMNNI

cells [2] = format: functional, cell-based
cells [3] = format: functional, cell-based; remark: listed apart in the source
Estrogen receptor = target: T2, Estrogen receptor (Homo sapiens, UniProt P03372);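 also: potency for inhibiting coactivator peptide recruitment to the receptor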
T2 sequence (P03372 whole entry): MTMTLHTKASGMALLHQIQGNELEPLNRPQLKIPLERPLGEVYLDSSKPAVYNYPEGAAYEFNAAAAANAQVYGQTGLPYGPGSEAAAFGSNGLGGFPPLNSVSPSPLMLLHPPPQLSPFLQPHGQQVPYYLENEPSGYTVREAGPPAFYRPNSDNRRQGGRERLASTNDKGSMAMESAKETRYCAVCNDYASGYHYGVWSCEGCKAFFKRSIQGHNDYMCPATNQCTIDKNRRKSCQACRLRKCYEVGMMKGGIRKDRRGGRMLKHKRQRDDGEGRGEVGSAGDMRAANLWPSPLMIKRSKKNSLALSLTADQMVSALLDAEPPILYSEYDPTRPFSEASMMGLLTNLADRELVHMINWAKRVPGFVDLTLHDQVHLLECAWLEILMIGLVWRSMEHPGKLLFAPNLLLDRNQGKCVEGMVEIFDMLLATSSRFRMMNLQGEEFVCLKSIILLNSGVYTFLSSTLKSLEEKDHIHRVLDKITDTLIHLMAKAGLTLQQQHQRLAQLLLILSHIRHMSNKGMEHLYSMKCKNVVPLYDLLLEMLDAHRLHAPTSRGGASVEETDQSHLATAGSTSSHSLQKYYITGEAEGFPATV

[4] = target: T3, Heat shock factor protein 1 (Mus musculus, UniProt P38532); experiment: HSF1 potentiators in luciferase reporter cells, confirmation, cell-based, NIH3T3, luminescence, dose retest (AID 435004); format: functional;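 also: stress induced by proteasome inhibitor MG132 added 30 min after compound; luciferase reporter driven by HSF1 response element in NIH3T3 cells; actives raise luminescence as potentiators of the MG132 stress response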
T3 sequence (P38532 whole entry): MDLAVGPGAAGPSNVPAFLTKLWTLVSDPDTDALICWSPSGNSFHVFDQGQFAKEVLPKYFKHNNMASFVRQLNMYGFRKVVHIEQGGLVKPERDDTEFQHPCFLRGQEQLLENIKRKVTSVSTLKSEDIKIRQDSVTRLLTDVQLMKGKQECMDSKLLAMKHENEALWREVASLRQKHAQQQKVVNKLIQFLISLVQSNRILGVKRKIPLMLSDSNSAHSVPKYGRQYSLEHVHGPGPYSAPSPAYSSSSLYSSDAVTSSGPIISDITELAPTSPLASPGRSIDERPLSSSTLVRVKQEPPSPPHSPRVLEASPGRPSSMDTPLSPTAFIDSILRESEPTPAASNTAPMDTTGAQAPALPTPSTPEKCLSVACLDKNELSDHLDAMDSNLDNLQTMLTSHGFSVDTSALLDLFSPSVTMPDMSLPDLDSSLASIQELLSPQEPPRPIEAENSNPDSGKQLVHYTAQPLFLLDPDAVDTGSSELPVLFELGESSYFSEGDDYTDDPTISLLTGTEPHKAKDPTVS

INS1 = experiment: beta cell apoptosis inhibitors, cytokine rescue, dose response, luminescence, retest (AID 449756); format: functional, cell-based; conditions: Rattus norvegicus;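 also: cell death triggered by IL-1 beta plus TNF-alpha plus IFN-gamma mixture; protective hits raise ATP signal compared with cytokine alone wells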
[5] = inhibitors of intracellular T. cruzi replication, confirmation, NIH3T3 host cells, beta-gal luminescence (AID 2044); format: functional, cell-based;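 also: intracellular parasites grown in NIH/3T3 mouse fibroblasts as host cells; luminescent beta-galactosidase reporter signal from transgenic T. cruzi replicating inside host cells; inhibitors lower the luminescence signal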
Protein RecA = target: T4, Protein RecA (Mycobacterium tuberculosis, UniProt P9WHJ3); experiment: Fluorescence Cell-Free Homogeneous Dose Retest to Identify Inhibitors of RecA-Intein Splicing Activity. [Related pubchem assays (depositor defined):AID2097, AID2223, AID489010, AID492950]; format: functional
T4 sequence (P9WHJ3 whole entry): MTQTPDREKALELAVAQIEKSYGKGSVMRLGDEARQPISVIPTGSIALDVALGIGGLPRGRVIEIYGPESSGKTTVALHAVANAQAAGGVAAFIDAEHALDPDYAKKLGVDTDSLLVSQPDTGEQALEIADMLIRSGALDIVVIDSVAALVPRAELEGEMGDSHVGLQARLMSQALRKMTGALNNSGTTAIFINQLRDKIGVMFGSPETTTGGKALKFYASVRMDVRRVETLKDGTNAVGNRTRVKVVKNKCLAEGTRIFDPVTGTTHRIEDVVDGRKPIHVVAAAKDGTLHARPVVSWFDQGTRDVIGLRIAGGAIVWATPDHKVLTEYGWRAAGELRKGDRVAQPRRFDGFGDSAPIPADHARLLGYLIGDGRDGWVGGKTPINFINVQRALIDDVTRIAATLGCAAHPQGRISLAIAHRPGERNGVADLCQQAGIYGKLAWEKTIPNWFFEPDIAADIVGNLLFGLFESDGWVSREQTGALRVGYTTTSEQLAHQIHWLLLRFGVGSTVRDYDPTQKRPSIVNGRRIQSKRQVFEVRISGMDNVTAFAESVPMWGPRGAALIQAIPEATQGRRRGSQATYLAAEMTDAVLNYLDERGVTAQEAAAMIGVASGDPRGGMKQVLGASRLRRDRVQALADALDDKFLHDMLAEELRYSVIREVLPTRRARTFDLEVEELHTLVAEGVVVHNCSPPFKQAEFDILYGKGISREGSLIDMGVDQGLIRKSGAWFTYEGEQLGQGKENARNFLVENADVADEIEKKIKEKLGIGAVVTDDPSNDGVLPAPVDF

[6] = cytotoxicity toward NIH3T3 fibroblasts, dose response, counter-screen, cell-based, ATP luminescence, mouse fibroblasts (AID 2010); format: functional;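 also: cells exposed to compound for about 90 hours before reading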
[7] = target: T5, Replicative DNA helicase DnaB (Mycobacterium tuberculosis, UniProt P9WMR3); experiment: DnaB intein splicing inhibitors, dose response, biochemical, cell-free fluorescence (AID 449749); format: functional
T5 sequence (P9WMR3 whole entry): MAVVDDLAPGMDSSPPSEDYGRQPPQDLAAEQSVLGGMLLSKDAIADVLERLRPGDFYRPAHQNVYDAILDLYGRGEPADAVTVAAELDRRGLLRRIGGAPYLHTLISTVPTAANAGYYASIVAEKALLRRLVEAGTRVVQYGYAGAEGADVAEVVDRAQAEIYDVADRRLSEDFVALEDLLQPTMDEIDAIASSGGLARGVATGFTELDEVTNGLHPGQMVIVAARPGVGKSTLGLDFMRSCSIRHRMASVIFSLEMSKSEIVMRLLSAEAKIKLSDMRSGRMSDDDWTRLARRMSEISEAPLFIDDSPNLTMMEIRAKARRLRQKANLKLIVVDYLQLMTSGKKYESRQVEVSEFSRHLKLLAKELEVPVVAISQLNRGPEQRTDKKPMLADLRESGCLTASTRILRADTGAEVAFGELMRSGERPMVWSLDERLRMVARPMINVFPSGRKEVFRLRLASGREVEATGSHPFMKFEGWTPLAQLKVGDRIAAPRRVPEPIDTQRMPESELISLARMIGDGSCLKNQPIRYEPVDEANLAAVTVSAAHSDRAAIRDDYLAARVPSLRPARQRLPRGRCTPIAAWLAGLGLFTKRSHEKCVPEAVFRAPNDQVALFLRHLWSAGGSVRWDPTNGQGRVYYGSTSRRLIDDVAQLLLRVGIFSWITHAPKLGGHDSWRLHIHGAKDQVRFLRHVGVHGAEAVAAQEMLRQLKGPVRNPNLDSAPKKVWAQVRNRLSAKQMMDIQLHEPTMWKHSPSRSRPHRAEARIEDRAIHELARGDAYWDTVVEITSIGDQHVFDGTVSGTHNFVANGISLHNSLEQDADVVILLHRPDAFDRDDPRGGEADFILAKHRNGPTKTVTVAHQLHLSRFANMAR

[8] = Luminescence Cell-Based Dose Retest to Confirm Inhibitors of Cancer Stem Cells. [Related pubchem assays (depositor defined):AID2717, AID2721]; format: functional; conditions: Homo sapiens
Genome polyprotein = Genome polyprotein (dengue virus type 2, UniProt P29990); experiment: Dengue-2 NS5 methyltransferase inhibitors, primary screen, biochemical, confirmation dose response (AID 588689); format: functional
Sequence of Genome polyprotein (P29990 2492-3391 limits assumed): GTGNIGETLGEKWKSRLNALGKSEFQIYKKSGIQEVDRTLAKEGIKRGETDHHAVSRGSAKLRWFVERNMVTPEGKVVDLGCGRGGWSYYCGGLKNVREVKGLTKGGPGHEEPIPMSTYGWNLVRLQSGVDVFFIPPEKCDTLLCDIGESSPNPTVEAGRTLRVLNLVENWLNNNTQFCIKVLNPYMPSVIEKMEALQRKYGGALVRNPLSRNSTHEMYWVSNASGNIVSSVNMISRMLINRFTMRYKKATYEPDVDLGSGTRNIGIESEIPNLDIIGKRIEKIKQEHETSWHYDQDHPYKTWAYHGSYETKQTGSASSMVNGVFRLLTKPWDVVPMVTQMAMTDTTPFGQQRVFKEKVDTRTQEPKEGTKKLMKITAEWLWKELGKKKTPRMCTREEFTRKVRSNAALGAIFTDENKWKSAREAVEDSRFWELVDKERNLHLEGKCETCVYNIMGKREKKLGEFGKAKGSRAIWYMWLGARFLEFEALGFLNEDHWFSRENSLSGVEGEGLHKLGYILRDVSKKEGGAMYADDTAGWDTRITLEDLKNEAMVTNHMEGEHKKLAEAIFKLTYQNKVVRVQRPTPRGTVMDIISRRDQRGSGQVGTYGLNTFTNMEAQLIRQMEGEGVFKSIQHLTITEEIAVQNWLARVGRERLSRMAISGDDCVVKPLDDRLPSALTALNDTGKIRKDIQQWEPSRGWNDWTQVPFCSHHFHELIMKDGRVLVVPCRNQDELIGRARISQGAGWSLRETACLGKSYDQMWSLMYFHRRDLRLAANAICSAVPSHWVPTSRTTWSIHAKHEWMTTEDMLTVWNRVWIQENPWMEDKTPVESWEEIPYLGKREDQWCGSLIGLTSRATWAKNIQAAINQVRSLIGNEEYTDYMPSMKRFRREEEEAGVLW

[9] = target: Induced myeloid leukemia cell differentiation protein Mcl-1 (Homo sapiens, UniProt Q07820); format: functional
Sequence of Induced myeloid leukemia cell differentiation protein Mcl-1 (Q07820 whole entry): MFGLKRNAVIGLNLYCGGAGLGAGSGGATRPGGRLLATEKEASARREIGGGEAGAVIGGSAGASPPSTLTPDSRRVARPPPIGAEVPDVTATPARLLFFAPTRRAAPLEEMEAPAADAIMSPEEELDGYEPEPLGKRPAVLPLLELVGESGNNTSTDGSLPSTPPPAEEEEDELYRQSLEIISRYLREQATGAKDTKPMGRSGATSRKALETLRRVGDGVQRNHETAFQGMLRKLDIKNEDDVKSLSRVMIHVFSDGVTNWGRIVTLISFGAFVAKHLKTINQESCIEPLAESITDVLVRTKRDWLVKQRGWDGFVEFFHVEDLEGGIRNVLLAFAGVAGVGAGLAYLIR

Large T antigen = Large T antigen (Simian virus 40, UniProt P03070); format: functional, Betapolyomavirus macacae;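 also: Confirmatory-stage PubChem screen for compounds that inhibit SV40 T antigen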
Sequence of Large T antigen (P03070 whole entry, the tested form may be a part): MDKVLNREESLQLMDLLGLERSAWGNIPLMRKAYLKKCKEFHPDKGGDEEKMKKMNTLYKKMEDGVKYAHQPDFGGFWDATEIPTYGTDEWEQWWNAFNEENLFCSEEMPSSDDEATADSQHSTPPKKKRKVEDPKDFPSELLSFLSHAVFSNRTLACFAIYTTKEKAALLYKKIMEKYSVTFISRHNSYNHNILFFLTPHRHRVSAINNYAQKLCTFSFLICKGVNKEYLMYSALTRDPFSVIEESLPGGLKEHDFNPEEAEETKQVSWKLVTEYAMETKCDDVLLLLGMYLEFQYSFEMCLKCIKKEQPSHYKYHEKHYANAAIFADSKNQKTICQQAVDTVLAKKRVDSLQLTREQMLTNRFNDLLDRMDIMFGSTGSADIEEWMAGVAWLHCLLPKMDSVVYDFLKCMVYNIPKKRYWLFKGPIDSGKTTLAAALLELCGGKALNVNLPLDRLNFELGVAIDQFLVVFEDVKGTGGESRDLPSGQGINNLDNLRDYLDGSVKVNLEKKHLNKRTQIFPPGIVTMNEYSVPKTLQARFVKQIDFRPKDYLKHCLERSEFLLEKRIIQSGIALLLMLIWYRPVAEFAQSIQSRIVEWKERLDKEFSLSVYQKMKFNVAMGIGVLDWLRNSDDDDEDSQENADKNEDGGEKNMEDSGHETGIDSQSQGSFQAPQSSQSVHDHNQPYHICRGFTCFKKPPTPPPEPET

[10] = target: T6, Carboxy-terminal domain RNA polymerase II polypeptide A small phosphatase 1 (Homo sapiens, UniProt Q9GZU7); experiment: inhibitors of CTDSP1, concentration-response testing, biochemical assay, absorbance-based, actives from ultra-high-throughput screening (AID 540297); format: functional
T6 sequence (Q9GZU7 whole entry): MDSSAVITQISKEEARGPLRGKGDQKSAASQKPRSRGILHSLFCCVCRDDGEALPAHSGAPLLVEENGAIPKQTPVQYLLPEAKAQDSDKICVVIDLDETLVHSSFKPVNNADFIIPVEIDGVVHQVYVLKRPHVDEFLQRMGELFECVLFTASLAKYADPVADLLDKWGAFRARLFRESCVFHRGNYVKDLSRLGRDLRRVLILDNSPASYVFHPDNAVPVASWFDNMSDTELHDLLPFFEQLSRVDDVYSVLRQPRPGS

[11] = intracellular Trypanosoma cruzi inhibitors in host cells – cell-based, plate reader, cherry-pick samples, set 3, dose response (AID 651818); format: functional;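 also: compounds incubated with infected cells for about four days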

Compound: COc1ccc(N(C(=O)c2snc(C(N)=O)c2N)C(C(=O)NC2CCCCC2)c2ccc(C)o2)cc1 (configuration not stated)
- IC50 [1]: > 20 µM (inactive)

Compound: CCOC(=O)c1c(S(=O)(=O)N2CCCC2)c(C)n(C)c1C
- EC50 (cells [2]): > 350 µM (not active)
- EC50 (cells [3]): > 350 µM (not active)

Compound: COc1ccc(N(CN2C(=O)C3C4C=CC(C4)C3C2=O)C(=O)c2ccco2)cc1 (configuration not stated)
- IC50 (Estrogen receptor): > 50 µM (not active)

Compound: O=S1(=O)c2cccc3cccc(c23)N1Cc1nnc(-c2ccccc2Br)o1
- EC50 [4]: 34.6 µM (active)

Compound: CC(C)CC(=O)Nc1ccc(C(=O)COc2ccc(-c3nnco3)cc2)cc1
- IC50 (Estrogen receptor): 22.3 µM (active)

Compound: COC(=O)c1ccc(CSc2nc3c(cnn3-c3ccc(C)c(C)c3)c(=O)[nH]2)o1
- IC50 (Estrogen receptor): 38.5 µM (not active)

Compound: CCN(Cc1ccccc1)C(=O)C1CCN(C/C(C)=C/c2ccccc2)CC1
- EC50 [4]: > 260 µM (inactive)

Compound: CCOC(=S)SCC(=O)Nc1nc(C)c(C)s1
- EC50 [4]: 7.81 µM (active)

Compound: Cc1ccc(NC2CCCN(C(=O)C3CCCCC3)C2)cc1C (configuration not stated)
- EC50 (cells [2]): > 350 µM (not active)
- EC50 (cells [3]): > 350 µM (not active)

Compound: O=C(C1CCC(CNS(=O)(=O)c2cccc3nsnc23)CC1)N1CCN(c2ccccn2)CC1 (configuration not stated)
- EC50 [4]: > 260 µM (inactive)

Compound: CCCCCc1cc(=O)oc2c(C(CCN3CCCC(C)C3)c3ccc(OC)cc3)c(OC)cc(OC)c12 (configuration not stated)
- AC50 (INS1): 7.46 µM (active)
- EC50 [5]: 1.6 µM (active)
- EC50 (Protein RecA): 12 µM (active)
- IC50 [1]: > 20 µM (inactive)
- EC50 [6]: 7.56 µM (active)
- AC50 [7]: 4.78 µM (active)
- AC50 [8]: 3.25 µM (active)

Compound: CCN(CC)CCCNC(=O)C1c2ccccc2C(=O)N(C)C1c1ccc(OC)cc1 (configuration not stated)
- EC50 (cells [2]): > 350 µM (not active)
- EC50 (cells [3]): > 350 µM (not active)

Compound: COc1ccccc1CNC(=O)c1csc(Cc2ccc(Cl)cc2)n1
- EC50 [4]: > 260 µM (inactive)

Compound: COc1ccc(NC(=O)CSc2nc3c(sc4ccccc43)c(=O)n2CCCN2CCCC2)cc1
- IC50 [1]: > 20 µM (inactive)

Compound: O=C(COc1cccnc1[N+](=O)[O-])c1ccc(Cl)s1
- IC50 (Genome polyprotein): > 100 µM (active)
- IC50 [9]: 3.78 µM (active)
- IC50 (Large T antigen): 67.7 µM (active)

Compound: COc1ccc(Cc2nc3ccc(S(=O)(=O)N4CCOCC4)cc3[nH]2)cc1
- IC50 (Estrogen receptor): > 50 µM (not active)

Compound: CCC(CC)COC(=O)C1=C(C)NC(=O)NC1c1cc(OC)ccc1OC (configuration not stated)
- EC50 [4]: > 260 µM (inactive)

Compound: COc1ccc(/C=N/NC(=O)c2ccc(O)cc2O)cc1CSc1ccccn1
- IC50 [10]: 5.92 µM (active)
- IC50 [9]: 3.42 µM (active)

Compound: C[C@@H]1CN([C@@H](C)CO)C(=O)c2cccc(NS(=O)(=O)c3cccs3)c2O[C@H]1CN(C)Cc1ccc(C(=O)Nc2ccccc2N)cc1
- AC50 [11]: 5.68 µM (active)

Compound: C[C@H](CO)N1C[C@H](C)[C@H](CN(C)S(=O)(=O)c2ccc(Cl)cc2)Oc2c(NC(=O)CCCCCC(=O)Nc3ccccc3N)cccc2C1=O
- AC50 [11]: 1.95 µM (active)

Compound: C[C@@H]1CCCCO[C@@H](CN(C)S(=O)(=O)c2cccs2)[C@@H](C)CN([C@H](C)CO)C(=O)c2cc(NC(=O)Nc3ccc(C(F)(F)F)cc3)ccc2O1
- AC50 [11]: 4.19 µM (active)

Compound: CN(C)CCCOc1ccc(/C=N/NC(=O)CCCCCCC(=O)Nc2ccccc2O)cc1
- AC50 [11]: 1.29 µM (active)

Compound: C[C@@H]1CN([C@H](C)CO)C(=O)Cc2cc(NC(=O)CCCCCC(=O)Nc3ccccc3N)ccc2O[C@@H]1CN(C)Cc1ccc(Cl)c(Cl)c1
- AC50 [11]: 4.01 µM (active)

Compound: CC/N=C1\SC(CC(=O)NC(C)C)C(=O)N1CC (configuration not stated)
- EC50 (cells [2]): > 350 µM (not active)
- EC50 (cells [3]): > 350 µM (not active)
